Assay [1] has as its system pre-activated CD4 T cells and Raji cells. Put plainly: Raji CD4 T Cell IL2 Assay. The format is cell-based.
Assay [2] concerns the target T1, human DGKζ (Homo sapiens (Human), UniProt Q13574). Put plainly: DGKζ LIPGLO assay (extruded liposome substrate). It counts as biochemical. On the procedure:
The DGKα and DGKζ reactions were performed using either extruded liposome (DGKα and DGKζ LIPGLO assays) or detergent/lipid micelle substrate (DGKα and DGKζ assays). The reactions were carried out in 50 mM MOPS pH 7.5, 100 mM NaCl, 10 mM MgCl2, 1 μM CaCl2, and 1 mM DTT (assay buffer). The reactions using a detergent/lipid micelle substrate also contained 50 mM octyl B-D-glucopyranoside.
(§1) A 5 mL enzyme/substrate solution at 2× final reaction concentration was prepared by combining 2.5 mL 4× enzyme solution (20 nM DGKα or DGKζ (prepared as described below) in assay buffer) and 2.5 mL of either 4× liposome or 4× detergent/lipid micelle solution (compositions described below) and incubated at room temperature for 10 minutes. Next, 1 μL 2× enzyme/substrate solution was added to wells containing the test compound and reactions were initiated with the addition of 1 μL 300 uM ATP. The reactions were allowed to proceed for 1 hr, after which 2 μL Glo Reagent (Promega V9101) was added and incubated for 40 minutes. Next, 4 μL Kinase Detection Reagent was added and incubated for 30 minutes. Luminescence was recorded using an EnVision microplate reader. […] The compounds were evaluated at 11 concentrations to determine IC50.
(§2) The PC, DAG, and PS were dissolved in chloroform, combined, and dried in vacuo to a thin film. The lipids were hydrated to 20 mM in 50 mM MOPS pH 7.5, 100 mM NaCl, 5 mM MgCl2, and were freeze-thawed five times. The lipid suspension was extruded through a 100 nm polycarbonate filter eleven times. […] The liposome preparation was stored at 4° C. for as long as four weeks.
Baculovirus amplification was achieved using infected Sf9 cells at 1:1500 virus/cell ratios, and grown for 65 hours at 27° C. post-transfection.
(§3) The expression scale up for each protein was carried out in the Cellbag 50 L WAVE-Bioreactor System 20/50 from GE Healthcare Bioscience. 12 L of 2×10^6 cells/mL Sf9 cells (Expression System, Davis, Calif.) grown in ESF921 insect medium (Expression System) were infected with virus stock at 1:200 virus/cell ratios, and grown for 66-68 hours at 27° C. post-infection. The infected cell culture was harvested by centrifugation at 2000 rpm for 20 min 4° C. in a SORVALL® RC12BP centrifuge. The cell pellets were stored at −70° C. until purification.
The cells were lysed using nitrogen cavitation method with a nitrogen bomb (Parr Instruments), and the lysates were clarified by centrifugation. […] The three steps column chromatography included nickel affinity resin capture (i.e. HisTrap FF crude, GE Healthcare), followed by size exclusion chromatography (i.e. HiLoad 26/600 Superdex 200 prep grade, GE Healthcare for DGK-alpha, and HiPrep 26/600 Sephacryl S 300_HR, GE Healthcare for DGK-zeta). The third step was ion exchange chromatography, and differed for the two isoforms. DGKα was polished using Q-Sepharose anion exchange chromatography (GE Healthcare). DGKζ was polished using SP Sepharose cation exchange chromatography (GE Healthcare). The proteins were delivered at concentrations of ≥2 mg/mL. The formulation buffers were identical for both proteins: 50 mM Hepes, pH 7.2, 500 mM NaCl, 10% v/v glycerol, 1 mM TCEP, and 0.5 mM EDTA.

Assay [3] deals with T2, human DGKα (Homo sapiens (Human), UniProt P23743). The assay is described as follows: biochemical. Put shortly:
(§4)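 Full-length human DGKζ (and DGKα), C-terminal His-tagged, Sf9-expressed, with phosphatidylserine/DAG micelles in 50 mM octyl glucoside; buffer 50 mM MOPS pH 7.5, 100 mM NaCl, 10 mM MgCl2, 1 μM CaCl2, 1 mM DTT.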

The target in assay [4] is T2, human DGKα. The assay is described as follows: DGKα LIPGLO assay (extruded liposome substrate). The format is biochemical. As to the method: The DGKα and DGKζ reactions were performed using either extruded liposome (DGKα and DGKζ LIPGLO assays) or detergent/lipid micelle substrate (DGKα and DGKζ assays). The reactions were carried out in 50 mM MOPS pH 7.5, 100 mM NaCl, 10 mM MgCl2, 1 μM CaCl2, and 1 mM DTT (assay buffer). The reactions using a detergent/lipid micelle substrate also contained 50 mM octyl B-D-glucopyranoside. […] The lipid substrate concentrations were […], 0.25 mM DAG, and 2.75 mM PC for the extruded liposome reactions.
as §1, with “The compound inhibition studies were carried out as follows: 50 nL droplets of each test compound (top concentration 10 mM with 11 point, 3-fold dilution series for each compound) solubilized in DMSO were transferred to wells of a white 1536 well plate (Corning 3725). A 5” for “A 5”
as §2
Human DGK-alpha-TVMV-His-pFBgate and human DCK-zeta-transcript variant-2-TVMV-His-pFBgate baculovirus samples were generated using the Bac-to-Bac baculovirus expression system (Invitrogen) according to the manufacturer's protocol. The DNA used for expression of DGK-alpha and DGK-zeta have SEQ ID NOs: 1 and 3, respectively. Baculovirus amplification was achieved using infected Sf9 cells at 1:1500 virus/cell ratios, and grown for 65 hours at 27° C. post-transfection.
as §3
Full length human DGKα and DGKζ, each expressed containing a TVMV-cleavable C-terminal Hexa-His tag sequence (SEQ ID NOs: 2 and 4, respectively) and produced as described above, were purified from Sf) baculovirus-infected insect cell paste. The cells were lysed using nitrogen cavitation method with a nitrogen bomb (Parr Instruments), and the lysates were clarified by centrifugation. […] The three steps column chromatography included nickel affinity resin capture (i.e. HisTrap FF crude, GE Healthcare), followed by size exclusion chromatography (i.e. HiLoad 26/600 Superdex 200 prep grade, GE Healthcare for DGK-alpha, and HiPrep 26/600 Sephacryl S 300_HR, GE Healthcare for DGK-zeta). The third step was ion exchange chromatography, and differed for the two isoforms.

The target of assay [5] is T1, human DGKζ. Put plainly: DGKζ assay (detergent/lipid micelle substrate). The format is biochemical. Summed up:
as §4

Where [6] appears, read: extruded liposome substrate, read-out: DGKζ LIPGLO IC50.
Setting [7] is: detergent/lipid micelle substrate, read-out: DGKα IC50.
[8] abbreviates: detergent/lipid micelle substrate, read-out: DGKζ IC50.
Where [9] appears, read: DGKζ LIPGLO IC50, extruded liposome substrate.
Setting [10] is: DGKζ IC50, detergent/lipid micelle substrate.

Where two headings read alike, the source gives them in different places.

T2 sequence (P23743 other isoform, or with tags, fused parts or gaps): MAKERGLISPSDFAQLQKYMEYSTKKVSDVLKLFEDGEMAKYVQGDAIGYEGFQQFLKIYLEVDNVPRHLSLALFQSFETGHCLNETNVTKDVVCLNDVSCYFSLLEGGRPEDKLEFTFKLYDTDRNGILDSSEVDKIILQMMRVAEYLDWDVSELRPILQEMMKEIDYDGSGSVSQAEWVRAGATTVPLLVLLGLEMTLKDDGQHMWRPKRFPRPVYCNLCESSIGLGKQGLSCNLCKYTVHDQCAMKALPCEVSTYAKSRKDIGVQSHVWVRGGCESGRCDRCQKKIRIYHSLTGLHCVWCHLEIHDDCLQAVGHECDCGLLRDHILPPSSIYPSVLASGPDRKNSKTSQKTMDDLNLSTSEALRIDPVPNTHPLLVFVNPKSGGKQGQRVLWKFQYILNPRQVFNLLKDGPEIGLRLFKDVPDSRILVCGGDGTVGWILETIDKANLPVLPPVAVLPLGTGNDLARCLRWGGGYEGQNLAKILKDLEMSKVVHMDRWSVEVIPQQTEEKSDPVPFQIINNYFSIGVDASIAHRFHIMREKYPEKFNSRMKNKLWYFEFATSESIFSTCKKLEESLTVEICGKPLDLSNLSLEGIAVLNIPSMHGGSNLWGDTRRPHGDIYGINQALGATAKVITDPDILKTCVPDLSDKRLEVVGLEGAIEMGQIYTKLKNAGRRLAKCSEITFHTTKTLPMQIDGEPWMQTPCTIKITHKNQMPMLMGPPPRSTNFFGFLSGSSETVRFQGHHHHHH
T1 sequence (Q13574 other isoform, or with tags, fused parts or gaps): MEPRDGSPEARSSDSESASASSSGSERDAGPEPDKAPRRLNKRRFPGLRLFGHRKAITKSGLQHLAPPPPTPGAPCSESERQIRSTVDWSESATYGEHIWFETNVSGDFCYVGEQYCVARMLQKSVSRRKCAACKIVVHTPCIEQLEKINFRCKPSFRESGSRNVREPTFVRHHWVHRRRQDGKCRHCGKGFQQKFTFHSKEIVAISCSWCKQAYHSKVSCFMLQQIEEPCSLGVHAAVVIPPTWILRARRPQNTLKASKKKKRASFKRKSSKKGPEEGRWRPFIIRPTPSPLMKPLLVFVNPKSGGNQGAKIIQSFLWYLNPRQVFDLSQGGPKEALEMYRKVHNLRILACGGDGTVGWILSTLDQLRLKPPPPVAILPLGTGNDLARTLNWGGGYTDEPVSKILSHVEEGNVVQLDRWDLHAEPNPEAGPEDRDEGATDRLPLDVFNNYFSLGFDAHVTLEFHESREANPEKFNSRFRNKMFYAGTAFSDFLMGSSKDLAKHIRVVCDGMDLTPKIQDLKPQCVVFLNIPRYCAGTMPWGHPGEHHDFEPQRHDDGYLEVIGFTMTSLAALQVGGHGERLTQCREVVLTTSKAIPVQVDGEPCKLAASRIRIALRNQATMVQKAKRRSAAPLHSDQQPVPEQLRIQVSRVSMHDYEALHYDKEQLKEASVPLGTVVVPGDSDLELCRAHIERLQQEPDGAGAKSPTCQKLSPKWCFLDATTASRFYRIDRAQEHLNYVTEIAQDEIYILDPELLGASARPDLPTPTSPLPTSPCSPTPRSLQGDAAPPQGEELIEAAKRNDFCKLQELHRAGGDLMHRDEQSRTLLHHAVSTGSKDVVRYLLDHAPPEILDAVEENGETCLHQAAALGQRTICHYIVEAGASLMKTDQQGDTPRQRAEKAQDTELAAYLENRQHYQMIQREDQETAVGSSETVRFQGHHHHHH

As for `COc1cc(F)ccc1C(c1ccc(F)cc1)N1CCN(c2c(C#N)c(=O)n(C)c3ccc(Br)nc23)CC1` (single isomer, unassigned) [Example 16, 6-bromo-4-{4-[(4-fluoro-2-methoxyphenyl)(4-fluorophenyl)methyl]piperazin-1-yl}-1-methyl-2-oxo-1,2-dihydro-1,5-naphthyridine-3-carbonitrile], the IC50 in assay [1] (Homo sapiens, Raji) is 21 nM; in assay [2] (setting [6]), 27000 nM; in assay [3] (setting [7]), 6400 nM; in assay [4], 4300 nM; in assay [5] (setting [8]), greater than 240000 nM.
As to `CC(c1ccc(F)cc1)N1CCN(c2c(C#N)c(=O)n(C)c3ccc(Br)nc23)CC1` (single isomer, unassigned) [Example 23, 6-bromo-4-{4-[1-(4-fluorophenyl)ethyl]piperazin-1-yl}-1-methyl-2-oxo-1,2-dihydro-1,5-naphthyridine-3-carbonitrile], the IC50 in assay [1] is 41 nM; in assay [2] (setting [6]), 13000 nM; in assay [3] (setting [7]), 610 nM; in assay [4], 1900 nM; in assay [5] (setting [8]), greater than 240000 nM.
Consider `CC(c1ccc(F)cc1)N1CCN(c2c(C#N)c(=O)n(C)c3ccc(Br)nc23)CC1` (single isomer, unassigned) [Example 24, 6-bromo-4-{4-[1-(4-fluorophenyl)ethyl]piperazin-1-yl}-1-methyl-2-oxo-1,2-dihydro-1,5-naphthyridine-3-carbonitrile], for which the IC50 in assay [1] is 12 nM; in assay [2] (setting [6]) it was 90000 nM; in assay [3] (setting [7]), 34 nM; in assay [4] it was 150 nM; in assay [5] (setting [8]), greater than 240000 nM.
In the same order, the values of `CCC(c1ccc(F)cc1)N1CCN(c2c(C#N)c(=O)n(C)c3ccc(Br)nc23)CC1` (single isomer, unassigned) [Example 26, 6-bromo-4-{4-[1-(4-fluorophenyl)propyl]piperazin-1-yl}-1-methyl-2-oxo-1,2-dihydro-1,5-naphthyridine-3-carbonitrile] are 140 nM, 18000 nM, 4300 nM, 6700 nM and 85000 nM.
For the compound `CCC(c1ccc(F)cc1)N1CCN(c2c(C#N)c(=O)n(C)c3ccc(Br)nc23)CC1` (single isomer, unassigned) [Example 27, 6-bromo-4-{4-[1-(4-fluorophenyl)propyl]piperazin-1-yl}-1-methyl-2-oxo-1,2-dihydro-1,5-naphthyridine-3-carbonitrile], the IC50 was 57 nM in assay [1]; greater than 240000 nM in assay [2] (setting [6]); 110 nM in assay [3] (setting [7]); 110 nM in assay [4]; greater than 240000 nM in assay [5] (setting [8]).
Turning to `CCC(c1ccc(F)cc1)N1CCN(c2c([N+](=O)[O-])c(=O)n(C)c3ccc(C#N)nc23)CC1` (single isomer, unassigned) [Example 33, 8-{4-[1-(4-fluorophenyl)propyl]piperazin-1-yl}-5-methyl-7-nitro-6-oxo-5,6-dihydro-1,5-naphthyridine-2-carbonitrile], the IC50 was 18 nM in assay [1] (Homo sapiens, Raji); 1700 nM in assay [2] (setting [9]); 750 nM in assay [3] (setting [7]); 1700 nM in assay [4]; 7600 nM in assay [5] (setting [10]).
Consider `CCC(c1ccc(F)cc1)N1CCN(c2c([N+](=O)[O-])c(=O)n(C)c3ccc(C#N)nc23)CC1` (single isomer, unassigned) [Example 34, 8-{4-[1-(4-fluorophenyl)propyl]piperazin-1-yl}-5-methyl-7-nitro-6-oxo-5,6-dihydro-1,5-naphthyridine-2-carbonitrile], for which the IC50 in assay [1] came out at 35 nM; in assay [2] (setting [9]), 3400 nM; in assay [3] (setting [7]), 180 nM; in assay [4], 290 nM; in assay [5] (setting [10]) it was 23000 nM.
Consider `CC(c1ccc(F)cc1)N1CCN(c2c([N+](=O)[O-])c(=O)n(C)c3ccc(C#N)nc23)CC1` (single isomer, unassigned) [Example 45, 8-(4-(1-(4-fluorophenyl)ethyl)piperazin-1-yl)-5-methyl-7-nitro-6-oxo-5,6-dihydro-1,5-naphthyridine-2-carbonitrile], for which the IC50 came out at 62 nM in assay [1] (Homo sapiens, Raji); 6800 nM in assay [2] (setting [6]); 100 nM in assay [3] (setting [7]); 390 nM in assay [4]; 36000 nM in assay [5] (setting [8]).
For the compound `Cn1c(=O)c([N+](=O)[O-])c(N2CCN(C(c3ccc(F)cc3)C3CC3)CC2)c2nc(C#N)ccc21` (single isomer, unassigned) [Example 50, 8-(4-(cyclopropyl(4-fluorophenyl)methyl)piperazin-1-yl)-5-methyl-7-nitro-6-oxo-5,6-dihydro-1,5-naphthyridine-2-carbonitrile], the IC50 in assay [1] amounted to 39 nM; in assay [2] (setting [6]), 5700 nM; in assay [3] (setting [7]), 990 nM; in assay [4], 2100 nM; in assay [5] (setting [8]) it was 39000 nM.
Take `Cn1c(=O)c([N+](=O)[O-])c(N2CCN(C(c3ccc(F)cc3)C3CC3)CC2)c2nc(C#N)ccc21` (single isomer, unassigned) [Example 51, 8-(4-(cyclopropyl(4-fluorophenyl)methyl)piperazin-1-yl)-5-methyl-7-nitro-6-oxo-5,6-dihydro-1,5-naphthyridine-2-carbonitrile]: the IC50 in assay [1] is 5.2 nM; in assay [2] (setting [6]), 4700 nM; in assay [3] (DGKα IC50, detergent/lipid micelle substrate) it was 180 nM; in assay [4] it was 330 nM; in assay [5] (setting [8]), 56000 nM.

The term IC50 denotes the point on the concentration scale where inhibition reaches its midpoint.
